According to paper PMC3388044, “Probing of Exosites Leads to Novel Inhibitor Scaffolds of HCV NS3/4A Proteinase” (PLoS ONE, 2012):

System: HCV replicon (NS3/4A V36M)
Test: not given
Conditions: fold change vs WT, mutant HCV replicon; cited from earlier work

SMILES | V36M FC (replicon)
CC(C)(C)NC(=O)N[C@H](C(=O)N1C[C@H]2[C@@H]([C@H]1C(=O)NC(CC1CCC1)C(=O)C(N)=O)C2(C)C)C(C)(C)C (stereo partly shown) [Boceprevir, boceprevir] | 1.8

Same assay, conditions: mutant HCV replicon with luciferase readout; cited from earlier work

SMILES | IC50 [µM]
CC(C)(C)NC(=O)N[C@H](C(=O)N1C[C@H]2[C@@H]([C@H]1C(=O)NC(CC1CCC1)C(=O)C(N)=O)C2(C)C)C(C)(C)C (stereo partly shown) [Boceprevir, boceprevir] | 0.217

System: HCV replicon (NS3/4A D168A)
Test: not given
Conditions: fold change vs WT, mutant HCV replicon; cited from earlier work

SMILES | D168A FC (replicon)
CC(C)(C)NC(=O)N[C@H](C(=O)N1C[C@H]2[C@@H]([C@H]1C(=O)NC(CC1CCC1)C(=O)C(N)=O)C2(C)C)C(C)(C)C (stereo partly shown) [Boceprevir, boceprevir] | 0.7

Same assay, conditions: mutant HCV replicon with luciferase readout; cited from earlier work

SMILES | IC50 [µM]
CC(C)(C)NC(=O)N[C@H](C(=O)N1C[C@H]2[C@@H]([C@H]1C(=O)NC(CC1CCC1)C(=O)C(N)=O)C2(C)C)C(C)(C)C (stereo partly shown) [Boceprevir, boceprevir] | 0.1

System: HCV replicon (NS3/4A R155K)
Test: not given
Conditions: fold change vs WT, mutant HCV replicon; cited from earlier work

SMILES | R155K FC (replicon)
CC(C)(C)NC(=O)N[C@H](C(=O)N1C[C@H]2[C@@H]([C@H]1C(=O)NC(CC1CCC1)C(=O)C(N)=O)C2(C)C)C(C)(C)C (stereo partly shown) [Boceprevir, boceprevir] | 4.7

Same assay, conditions: mutant HCV replicon with luciferase readout; cited from earlier work

SMILES | IC50 [µM]
CC(C)(C)NC(=O)N[C@H](C(=O)N1C[C@H]2[C@@H]([C@H]1C(=O)NC(CC1CCC1)C(=O)C(N)=O)C2(C)C)C(C)(C)C (stereo partly shown) [Boceprevir, boceprevir] | 0.743

System: HCV replicon (WT NS3/4A)
Test: not given
Conditions: HCV replicon with luciferase readout; cited from earlier work

SMILES | IC50 [µM]
CC(C)(C)NC(=O)N[C@H](C(=O)N1C[C@H]2[C@@H]([C@H]1C(=O)NC(CC1CCC1)C(=O)C(N)=O)C2(C)C)C(C)(C)C (stereo partly shown) [Boceprevir, boceprevir] | 0.148

System: HCV replicon (NS3/4A V170A)
Test: not given
Conditions: fold change vs WT, mutant HCV replicon; cited from earlier work

SMILES | V170A FC (replicon)
CC(C)(C)NC(=O)N[C@H](C(=O)N1C[C@H]2[C@@H]([C@H]1C(=O)NC(CC1CCC1)C(=O)C(N)=O)C2(C)C)C(C)(C)C (stereo partly shown) [Boceprevir, boceprevir] | 5.8

Same assay, conditions: mutant HCV replicon with luciferase readout; cited from earlier work

SMILES | IC50 [µM]
CC(C)(C)NC(=O)N[C@H](C(=O)N1C[C@H]2[C@@H]([C@H]1C(=O)NC(CC1CCC1)C(=O)C(N)=O)C2(C)C)C(C)(C)C (stereo partly shown) [Boceprevir, boceprevir] | 1.55

System: HCV replicon (NS3/4A A156T)
Test: not given
Conditions: mutant HCV replicon with luciferase readout; cited from earlier work

SMILES | IC50 [µM]
CC(C)(C)NC(=O)N[C@H](C(=O)N1C[C@H]2[C@@H]([C@H]1C(=O)NC(CC1CCC1)C(=O)C(N)=O)C2(C)C)C(C)(C)C (stereo partly shown) [Boceprevir, boceprevir] | 7.23

Target: T1, HCV NS3/4A (wild-type) (Hepatitis C virus genotype 1b, UniProt O92972)
T1 construct: The NS3/4A construct represented the individual NS3 proteinase domain N-terminally fused with an NS4A co-factor; 6xHis; purchased AnaSpec (Fremont, CA)
Test: NS3/4A activity assay with FRET peptide substrate, wild-type enzyme
Assay type: biochemical, HCV genotype 1b, strain HC-J4
Conditions: Table S1 100-1000; wild-type NS3/4A, FRET peptide substrate; read-out: NS3/4A IC50 range class 100-1000
Excerpt: Reagents were purchased from Sigma unless indicated otherwise. The FRET substrate Ac-DE-D(Edans)-EE-Abu-ψ-[COO]-AS-K(Dabsyl)-NH2, purified recombinant wild-type NS3/4A from HCV genotype 1b, strain HC-J4, and the mutants with the V36M, R155K, A156T, D168A and V170A resistance mutations were from AnaSpec (Fremont, CA). The NS3/4A construct represented the individual NS3 proteinase domain N-terminally fused with an NS4A co-factor and tagged with a 6xHis tag. NS3/4A was in active form and the pre-activation by pep-4A or pep4AK was not necessary. Pyroglutamic acid-Arg-Thr-Lys-Arg-7-amino-4-methylcoumarin was from Peptides International (Louisville, KY). West Nile virus NS2B-NS3 proteinase (strain NY99) was expressed, purified and refolded to restore its functional activity as described earlier. The pET15b-Den2-CF40-Gly-NS3pro 185 plasmid encoding the Dengue virus type 2 NS2B-NS3 protease was a kind gift of Dr. Subhash Vasudevan (Program in Emerging Infectious Diseases, DUKE-NUS Graduate Medical School, Singapore). DV NS2B-NS3 proteinase was expressed purified and refolded to restore its functional activity as described previously, [70]. The expression of the soluble C-terminally truncated human furin construct in Sf9 insect cells (an ovarian cell line from fall armyworm Spodoptera frugiperda; Invitrogen, Carlsbad, CA) infected with the recombinant baculovirus and purification of soluble furin from the medium were described earlier. Original human hepatocarcinoma Huh7 cells were obtained from ATCC (Manassas, VA).
The NS3/4A activity assay was performed at 37°C in triplicate in wells of a 96-well plate in 0.2 ml 50 mM HEPES, pH 7.5, containing 100 mM NaCl, 10 mM DTT, 20% glycerol, the Ac-DE-D(Edans)-EE-Abu-ψ-[COO]-AS-K(Dabsyl)-NH2 substrate (10 µM) and the NS3/4A enzyme (10 nM). Reaction velocity was monitored continuously at λex = 355 nm and λem = 500 nm for 10 min using a Spectramax Gemini EM fluorescence spectrophotometer (Molecular Devices, Sunnyvale, CA) and the initial rate of reaction v was recorded for each reaction. There was no significant additional absorption by compounds 1–8 we identified, which might interfere with NS3/4A assay. Compound stock solutions (10 mM) were made in 100% DMSO. Stocks were then diluted using the assay buffer. As a result, the final DMSO concentration was always below 1% in the assay reactions.
To measure the inhibitory potency of the compounds, their increasing concentrations were pre-incubated with the individual proteinases in the corresponding buffer for 30 min at ambient temperature. At least, 7–9 different concentrations were used for each inhibitor. The residual activity of the enzymes was then measured as above. The IC50 values of the inhibitory compounds were calculated by determining the concentrations of the compounds needed to inhibit 50% of the enzyme activity against the peptide substrate. GraphPad Prism was used as fitting software.

SMILES | IC50 [µM]
FC(F)(F)C(F)(F)c1nc2nc(Cl)c(Cl)nc2[nH]1 [Compound 45] | 100 to 1000
OCCOCn1nc(-c2ccccc2)nc1-c1cnccn1 [Compound 51] | 100 to 1000
CSc1nc2nc(Cl)c(Cl)nc2[nH]1 [Compound 47] | 100 to 1000
S=c1[nH]n2c(COc3ccc(OCc4nnc5sc(=S)[nH]n45)c(Cl)c3)nnc2s1 [Compound 59] | 100 to 1000
FC(F)(F)C1=N/C(=C2\N=C(C(F)(F)F)N=C2Cl)C(Cl)=N1 [Compound 48] | 100 to 1000
O=C(CCc1nnc2s/c(=C\c3ccccc3[N+](=O)[O-])c(=O)n12)Nc1cc(Cl)c(Cl)cc1Cl [Compound 54] | 100 to 1000
Clc1nc2nc3n(c2nc1Cl)CCC3 [Compound 46] | 100 to 1000
O=C(Nc1ccc(Br)cc1)C(=O)C(C(=O)c1ccc(Cl)c(Cl)c1)C1OC(=O)c2ccccc21 (stereo not shown) [Compound 55] | 100 to 1000
O=S(=O)(Nc1c(Cl)c(Cl)c(Cl)c(Cl)c1NS(=O)(=O)c1ccccc1)c1ccccc1 [Compound 52] | 100 to 1000
Cn1ncc2c(Nc3ccc(O)cc3)nc(Cl)nc21 [Compound 42] | 100 to 1000
COc1ccc(OC)c(NC(=O)c2c(Cl)c(Cl)c(Cl)c(Cl)c2-c2nc3ccccc3[nH]2)c1 [Compound 58] | 100 to 1000
CC(CNc1nc(Nc2ccc(Cl)c(Cl)c2)nc(C(Cl)(Cl)Cl)n1)N(C)C (stereo not shown) [Compound 49] | 100 to 1000
NC(=S)/N=C(\c1nc2ccc(Cl)cc2[nH]c1=O)C(O)c1ccccc1Cl (stereo not shown) [Compound 50] | 100 to 1000
O=[N+]([O-])c1cc([N+](=O)[O-])c2ccccc2c1NS(=O)(=O)c1ccc(Cl)c(Cl)c1Cl [Compound 53] | 100 to 1000
CN(C)CCCNc1nc(-c2cccc(C(Cl)(Cl)Cl)c2)nc(C(Cl)(Cl)Cl)n1 [Compound 44] | 100 to 1000
CC(C)(CCC#N)c1nc2sc(C(C)(C)CCC#N)nc2s1 [Compound 43] | 100 to 1000
Cc1cccc(C(C)C)c1NC(=O)C(=O)CC(=O)c1sc(Nc2ccccc2Cl)nc1C [Compound 56] | 100 to 1000
CC(=O)Nc1ccc(NC(=O)c2c(Cl)c(Cl)c(Cl)c(Cl)c2-c2nc3ccccc3[nH]2)cc1 [Compound 57] | 100 to 1000
Cc1cc(S(=O)(=O)Nc2nc3ccsc3c(=O)n2Cc2ccccc2)c(S)cc1Cl [Compound 60] | 100 to 1000

Same assay, conditions: Table S1; wild-type NS3/4A, FRET peptide substrate; read-out: NS3/4A IC50 range class 10 -100

SMILES | IC50 [µM]
O=C(O)c1c(Br)c(Br)c(Br)c(Br)c1C(=O)Nc1cc([N+](=O)[O-])ccc1O [Compound 22] | 10 to 100
O=[N+]([O-])c1ccc(O)c(C=Nc2cc(Cl)c(Cl)cc2NS(=O)(=O)c2ccccc2)c1 [Compound 37] | 10 to 100
Clc1ccc(OCc2nn3c(CCCCc4nnc5sc(COc6ccc(Cl)cc6Cl)nn45)nnc3s2)c(Cl)c1 [Compound 35] | 10 to 100
OCC(O)C(O)C(O)c1nn(-c2ccccc2)c2nc3cc(Cl)c(Cl)cc3nc12 (stereo not shown) [Compound 31] | 10 to 100
Cc1c(N=Nc2cccc(Cl)c2Cl)c(-c2ccccc2)nn1C(=S)S [Compound 27] | 10 to 100
O=C1CS(=O)(=O)CN1c1ccc(Cl)c(Cl)c1 [Compound 25] | 10 to 100
O=C(Nc1ccc(Cl)c(Cl)c1)C1C(=O)C(=O)N(c2ccc(Cl)c(Cl)c2)C1=O (stereo not shown) [Compound 24] | 10 to 100
O=S(=O)(Nc1cc(Cl)c(Cl)cc1N=Cc1ccc(N(CCCl)CCCl)cc1F)c1ccccc1 [Compound 36] | 10 to 100
C(=C\c1ccccc1)/Cn1nc(-c2ccccc2)nc1-c1cnccn1 [Compound 32] | 10 to 100
Brc1ccc2c(ccc3c2nnc2ncnn23)c1 [Compound 30] | 10 to 100
CSC(=S)n1nc(C)c(N=Nc2cccc(Cl)c2Cl)c1C [Compound 29] | 10 to 100
Cn1ncc2c(Nc3cc(Cl)ccc3Cl)ncnc21 [Compound 12] | 10 to 100
FC(F)(F)c1cccc(-c2nc3nc(Cl)c(Cl)nc3[nH]2)c1 [Compound 18] | 10 to 100
O=C(CNC(=O)Nc1ccc(Cl)c(Cl)c1)NNC(=O)Nc1ccc(F)c(Cl)c1 [Compound 23] | 10 to 100
Oc1ccc(C=NCCN=Cc2ccc(O)cc2O)c(O)c1.[Ni] [Compound 14] | 10 to 100
Clc1ccc(Nc2nc(SCc3ccccc3)nc3n[nH]c(Cc4nn[nH]n4)c23)cc1 [Compound 40] | 10 to 100
O=C(N/N=C\c1cc(Br)cc(Br)c1O)N/N=C/c1cc(Br)cc(Br)c1O [Compound 20] | 10 to 100
Cc1nn(C(=S)S)c(C)c1N=Nc1cccc(Cl)c1Cl [Compound 26] | 10 to 100
O=C1c2cc(Cl)ccc2-c2ccc(N=Cc3ccc(Cl)c(Cl)c3)cc21 [Compound 16] | 10 to 100
O=C(Nc1ccc(Cl)c(Cl)c1)c1ccc(C(=O)Nc2ccc(Cl)c(Cl)c2)cc1 [Compound 21] | 10 to 100
Cc1cc(S(=O)(=O)Nc2nc3cc(-c4ccc(Cl)cc4)sc3c(=O)n2N)c(S)cc1Cl [Compound 33] | 10 to 100
O=C(Nc1ccc(Cl)c(Cl)c1)C(=O)C(C(=O)c1ccccc1F)C1OC(=O)c2ccccc21 (stereo not shown) [Compound 39] | 10 to 100
Cc1nn(C(N)=S)c(C)c1N=Nc1cccc(Cl)c1Cl [Compound 28] | 10 to 100
O=S(=O)(Nc1c(Cl)c(Cl)c(NS(=O)(=O)c2ccccc2)c(Cl)c1Cl)c1ccccc1 [Compound 38] | 10 to 100
Sc1ccccc1Nc1nc(SCc2ccccc2)nc2n[nH]c(Cc3nc4ccccc4s3)c12 [Compound 34] | 10 to 100
O=C(CCCC(=O)N/N=C/c1ccc(Cl)cc1Cl)N/N=C/c1ccc(Cl)cc1Cl [Compound 17] | 10 to 100
O=C1C=C(Nc2ccc(Cl)cc2Cl)C(=O)C=C1Nc1ccc(Cl)cc1Cl [Compound 15] | 10 to 100
CC(C)N(C(=O)CSc1c(Cl)c(Cl)c(Cl)c(Cl)c1Cl)C(C)C [Compound 19] | 10 to 100
Oc1c(Br)cc(CN(Cc2cc(Br)c(O)c(Br)c2)C2CCCCC2)cc1Br [Compound 13] | 10 to 100

Same assay, conditions: wild-type NS3/4A 10 nM, Ac-DE-D(Edans)-EE-Abu-ψ-[COO]-AS-K(Dabsyl)-NH2 10 µM, 30 min pre-incubation; read-out: NS3/4A IC50

SMILES | IC50 [µM]
FC(F)(F)c1nc2nc(Cl)c(Cl)nc2s1 [Compound 9] | 4.5
S=c1[nH]nc(CCCCc2n[nH]c(=S)n2/N=C/c2ccc(Cl)cc2Cl)n1/N=C/c1ccc(Cl)cc1Cl [Compound 10] | 5.25
O=C(c1ccco1)c1c(C(F)(F)F)n([O-])c2cc(Cl)c(Cl)cc2[n+]1=O [Compound 11] | 6.5
